Experimental findings from BindingDB's records for doi:10.1016/j.bmcl.2010.10.020 (Incyte, 2010) are described below.

Assay [1] can be described thus: Antagonist activity at mouse CCR2 assessed as inhibition of MCP1 induced chemotaxis after 30 mins.
A short description of assay [2]: Antagonist activity at human CCR2 assessed as inhibition of MCP1 induced chemotaxis after 30 mins.

For the compound `CCO[C@H]1CN([C@H]2CC[C@@](O)(c3ccc(C)cc3)CC2)C[C@@H]1NC(=O)CNC(=O)c1cccc(C(F)(F)F)c1` [N-(2-((3S,4S)-4-ethoxy-1-(cis-4-hydroxy-4-p-tolylcyclohexyl)pyrrolidin-3-ylamino)-2-oxoethyl)-3-(trifluoromethyl)benzamide], the figures for the IC50 in assay [1] and in assay [2] were 13 nM and 1.4 nM, respectively.

Turning to `CCO[C@H]1CN([C@H]2CC[C@@](O)(c3ccccc3)CC2)C[C@@H]1NC(=O)CNC(=O)c1cccc(C(F)(F)F)c1` [N-(2-((3S,4S)-4-ethoxy-1-(cis-4-hydroxy-4-phenylcyclohexyl)pyrrolidin-3-ylamino)-2-oxoethyl)-3-(trifluoromethyl)benzamide], the values for the concentration for half-maximal inhibition (IC50) in assay [1] and in assay [2] were 444 nM and 3 nM, respectively.

For `CCO[C@H]1CN([C@H]2CC[C@@H](c3ccccc3)CC2)C[C@@H]1NC(=O)CNC(=O)c1cccc(C(F)(F)F)c1` [N-(2-((3S,4S)-4-ethoxy-1-(cis-4-phenylcyclohexyl)pyrrolidin-3-ylamino)-2-oxoethyl)-3-(trifluoromethyl)benzamide], the values for the IC50 in assay [1] and in assay [2] were 14 nM and 6.5 nM, respectively.

For the compound `O=C(CNC(=O)c1cccc(C(F)(F)F)c1)N[C@H]1CN([C@H]2CC[C@@H](c3ccccc3)CC2)C[C@@H]1O` [N-(2-((3S,4S)-4-hydroxy-1-(cis-4-phenylcyclohexyl)pyrrolidin-3-ylamino)-2-oxoethyl)-3-(trifluoromethyl)benzamide], the IC50 in assay [1] came to 265 nM; in assay [2] it was 12 nM.

With `CCCO[C@H]1CN([C@H]2CC[C@@H](c3ccccc3)CC2)C[C@@H]1NC(=O)CNC(=O)c1cccc(C(F)(F)F)c1` [N-(2-oxo-2-((3S,4S)-1-(cis-4-phenylcyclohexyl)-4-propoxypyrrolidin-3-ylamino)ethyl)-3-(trifluoromethyl)benzamide], the IC50 amounted to 158 nM in assay [1] and 1.8 nM in assay [2].

A word on the IC50: it is the midpoint of a concentration-inhibition curve.
